25 molecules from patent publication US20110190503A1, “Thiazolopyridin-2-yloxy-phenyl and thiazolopyrazin-2-yloxy-phenyl amines as modulators of leukotriene A4 hydrolase” (Janssen Pharmaceutical NV, priority 2008, published 2011) can be followed below.

Experiment [1] deals with T1, recombinant human LTA4 hydrolase (rhLTA4H) (Homo sapiens, UniProt P09960).
T1 construct: made in house; host or cells: Spodoptera frugiperda (Sf-9) cells, recombinant baculovirus (pFastBac1)
T1 sequence (P09960 1-611): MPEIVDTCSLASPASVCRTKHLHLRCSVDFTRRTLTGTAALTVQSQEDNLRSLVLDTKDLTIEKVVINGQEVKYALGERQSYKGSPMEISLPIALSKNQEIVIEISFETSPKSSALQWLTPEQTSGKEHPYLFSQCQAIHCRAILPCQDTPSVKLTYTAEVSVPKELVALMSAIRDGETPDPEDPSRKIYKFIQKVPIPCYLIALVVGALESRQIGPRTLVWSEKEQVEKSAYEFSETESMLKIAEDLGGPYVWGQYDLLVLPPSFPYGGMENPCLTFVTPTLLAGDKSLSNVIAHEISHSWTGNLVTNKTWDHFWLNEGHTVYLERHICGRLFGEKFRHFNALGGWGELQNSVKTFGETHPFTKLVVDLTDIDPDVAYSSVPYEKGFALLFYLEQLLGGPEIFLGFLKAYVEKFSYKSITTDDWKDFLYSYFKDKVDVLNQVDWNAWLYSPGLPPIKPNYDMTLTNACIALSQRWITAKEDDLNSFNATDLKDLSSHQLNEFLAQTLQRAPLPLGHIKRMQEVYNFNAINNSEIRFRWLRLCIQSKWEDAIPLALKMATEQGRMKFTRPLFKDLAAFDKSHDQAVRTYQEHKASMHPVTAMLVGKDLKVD
The experiment in a line: Recombinant human LTA4 hydrolase assay for LTA4 hydrolase inhibitor activity. Format: biochemical. As to conditions: rhLTA4H, LTA4 substrate, LTB4 by immunoassay; single determination or average; read-out: IC50. An outline of the steps: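 LTB4 formed from LTA4 substrate (free acid from the methyl ester) was quantified by enzyme immunoassay after a 30 min rt reaction. Enzyme was 10 ng Sf-9-expressed human LTA4 hydrolase, pre-incubated 10 min with compound.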

Experiment [2] has as its system LTB4 production by calcium ionophore-stimulated murine blood. As to the kind of experiment: LTB4 production by calcium ionophore-stimulated murine blood for LTA4H inhibitor activity. The class given is cell-based, CD-1 mice. Particulars: Mus musculus; murine blood diluted 1 in 15, calcium ionophore A23187, LTB4 by immunoassay; read-out: IC50. On the procedure: Assay 2: LTB4 Production by Calcium Ionophore-Stimulated Murine Blood for LTA4H Inhibitor Activity
CD-1 mice were sacrificed, and blood was collected in heparin-containing syringes by cardiac puncture. […] After the microtiter plate contents were incubated for 15 min at 37° C. in a humidified incubator, calcium ionophore A23187 (Sigma Chemical Co., St. Louis, Mo.) was added to each sample well (final concentration=7 μg/mL). The incubation was continued under the same conditions for an additional 30 min to allow LTB4 formation. The reaction was terminated by centrifugation (833×g, 10 min at 4° C.), and supernatants were analyzed for LTB4 by a commercially available enzyme-linked immunoassay (Cayman Chemical Co.) according to the manufacturer's instructions. Positive controls, under essentially identical conditions but without addition of an inhibitor compound, and negative unstimulated controls, containing all assay components except calcium ionophore, were routinely run in each experiment. […] The values presented here are the result of a single determination or an average of two or more determinations, as indicated in parentheses following each value. For compounds tested three or more times, the average value is followed by the standard deviation

What is called IC50 is the concentration that inhibits the measured activity by half. For `CCOC(=O)C1CCN(Cc2ccc(Oc3nc4ncccc4s3)cc2)CC1` [Example 130, Ethyl 1-[4-([1,3]thiazolo[4,5-b]pyridin-2-yloxy)benzyl]piperidine-4-carboxylate], the IC50 in experiment [1] was 2.5 nM; in experiment [2], 110 nM.

Turning to `NC(=O)N1CC2CN(CCc3ccc(Oc4nc5ncccc5s4)cc3)CC2C1` (centres unmarked) [Example 74, 5-{2-[4-([1,3]Thiazolo[4,5-b]pyridin-2-yloxy)Phenyl]ethyl}hexahydropyrrolo[3,4-c]pyrrole-2(1H)-carboxamide], the IC50 turned out to be 6.5 nM in experiment [1] and 230 nM in experiment [2].

`COc1ccccc1N1CCN(CCOc2ccc(Oc3nc4ncccc4s3)cc2)CC1` [Example 135, 2-(4-{2-[4-(2-Methoxyphenyl)piperazin-1-yl]ethoxy}phenoxy)[1,3]thiazolo[4,5-b]pyridine]: the values for the IC50 in experiment [1] and in experiment [2] were 72 nM and 88 nM, respectively.

As for `OC1(c2ccccc2)CCN(Cc2ccc(Oc3nc4ncccc4s3)cc2)CC1` [Example 105, 4-Phenyl-1-[4-([1,3]thiazolo[4,5-b]pyridin-2-yloxy)benzyl]piperidin-4-ol], the half-inhibitory concentration (IC50) is 0.53 nM in experiment [1] and 15 nM in experiment [2].

Turning to `CC(=O)N[C@H]1C[C@H]2CC[C@@H](C1)N2Cc1ccc(Oc2nc3nccc(C)c3s2)cc1` [Example 289, meso-endo-N-[8-{4-[(7-Methyl[1,3]thiazolo[4,5-b]pyridin-2-yl)oxy]benzyl}-8-azabicyclo[3.2.1]oct-3-yl]acetamide], the IC50 in experiment [1] came to 9 nM; in experiment [2] it was 542 nM.

As for `CC(=O)N1CC2CC(CN(Cc3ccc(Oc4nc5ncccc5s4)cc3)C2)C1` [Example 294, meso-2-(4-{[7-Acetyl-3,7-diazabicyclo[3.3.1]non-3-yl]methyl}phenoxy)[1,3]thiazolo[4,5-b]pyridine], the values for the IC50 in experiment [1] and in experiment [2] were 23 nM and 79 nM, respectively.

For `c1cnc2nc(Oc3ccc(CN4CCC(Oc5ccncc5)CC4)cc3)sc2c1` [Example 262, 2-(4-{[4-(Pyridin-4-yloxy)piperidin-1-yl]methyl}phenoxy)[1,3]thiazolo[4,5-b]pyridine], the IC50 was found to be 3 nM in experiment [1] and 97 nM in experiment [2].

For `CC(=O)N1[C@@H]2CC[C@H]1C[C@@H](NCCOc1ccc(Oc3nc4ncccc4s3)cc1)C2` [Example 159, meso-(3-endo)-8-acetyl-N-{2-[4-([1,3]thiazolo[4,5-b]pyridin-2-yloxy)phenoxy]ethyl}-8-azabicyclo[3.2.1]octan-3-amine], the results for the IC50 in experiment [1] and in experiment [2] were 9 nM and 82 nM, respectively.

For the molecule `CC(=O)N[C@H]1C[C@H]2CC[C@@H](C1)N2CCOc1ccc(Oc2nc3nccnc3s2)cc1` [Example 148, meso-N-[(3-endo)-8-{2-[4-([1,3]Thiazolo[4,5-b]pyrazin-2-yloxy)phenoxy]ethyl}-8-azabicyclo[3.2.1]oct-3-yl]acetamide], the IC50 in experiment [1] stood at 43 nM; in experiment [2], 36 nM.

Regarding `NC(=O)N[C@@H]1C[C@H]2CC[C@@H](C1)N2Cc1ccc(Oc2nc3ncccc3s2)cc1` [Example 110, meso-1-{(3-exo)-8-[4-([1,3]Thiazolo[4,5-b]pyridin-2-yloxy)benzyl]-8-azabicyclo[3.2.1]oct-3-yl}urea], the IC50 came to 1 nM in experiment [1] and 1440 nM in experiment [2].

Turning to `c1ccc(C2CCN(CCOc3ccc(Oc4nc5ncccc5s4)cc3)CC2)nc1` [Example 34, 2-{4-[2-(4-Pyridin-2-ylpiperidin-1-yl)ethoxy]phenoxy}[1,3]thiazolo[4,5-b]pyridine], the half-maximal inhibitory concentration (IC50) is 19 nM in experiment [1] and 140 nM in experiment [2].

Turning to `CC(=O)N1[C@@H]2CC[C@H]1C[C@@H](NCc1ccc(Oc3nc4ncccc4s3)cc1)C2` [Example 169, meso-(3-endo)-8-Acetyl-N-{[4-([1,3]thiazolo[4,5-b]pyridin-2-yloxy)phenyl]methyl}-8-azabicyclo[3.2.1]octan-3-amine], the IC50 was determined as 18 nM in experiment [1] and 54 nM in experiment [2].

Turning to `O=C(O)C1CCN(Cc2ccc(Oc3nc4ncccc4s3)cc2)CC1` [Example 131, 1-[4-([1,3]Thiazolo[4,5-b]pyridin-2-yloxy)benzyl]piperidine-4-carboxylic acid], the IC50 in experiment [1] was determined as 7.8 nM; in experiment [2] it was 1070 nM.

As to `NC(=O)N1CC2CN(CCOc3ccc(Oc4nc5ncccc5s4)cc3)CC2C1` (centres unmarked) [Example 19, 5-{2-[4-([1,3]Thiazolo[4,5-b]pyridin-2-yloxy)phenoxy]ethyl}hexahydropyrrolo[3,4-c]pyrrole-2(1H)-carboxamide], the values for the IC50 in experiment [1] and in experiment [2] were 17 nM and 340 nM, respectively.

On to `c1cnc2nc(Oc3ccc(OCCN4CCOCC4)cc3)sc2c1` [Example 11, 2-[4-(2-Morpholin-4-ylethoxy)phenoxy][1,3]thiazolo[4,5-b]pyridine], for which the IC50 in experiment [1] is 98 nM; in experiment [2] it was 190 nM.

In the case of `FC(F)(F)C1CCN(Cc2ccc(Oc3nc4ncccc4s3)cc2)CC1` [Example 92, 2-(4-{[4-(Trifluoromethyl)piperidin-1-yl]methyl}phenoxy)[1,3]thiazolo[4,5-b]pyridine], the IC50 was 4 nM in experiment [1] and 67 nM in experiment [2].

Turning to `c1ccc(C2CCN(CCc3ccc(Oc4nc5ncccc5s4)cc3)CC2)nc1` [Example 48, 2-{4-[2-(4-Pyridin-2-ylpiperidin-1-yl)ethyl]phenoxy}[1,3]thiazolo[4,5-b]pyridine], the values for the IC50 in experiment [1] and in experiment [2] were 15 nM and 100 nM, respectively.

Consider `c1cnc2nc(Oc3ccc(CCN4CCC(c5ccncc5)CC4)cc3)sc2c1` [Example 65, 2-{4-[2-(4-Pyridin-4-ylpiperidin-1-yl)ethyl]phenoxy}[1,3]thiazolo[4,5-b]pyridine], for which the IC50 in experiment [1] worked out at 9.6 nM; in experiment [2] it was 100 nM.

As to `COCCCN(CCOc1ccc(Oc2nc3ncccc3s2)cc1)C1CC1` [Example 272, N-(3-Methoxypropyl)-N-{2-[4-([1,3]thiazolo[4,5-b]pyridin-2-yloxy)phenoxy]ethyl}cyclopropanamine], the IC50 in experiment [1] worked out at 37 nM; in experiment [2] it was 97 nM.

`NC(=O)C1CCN(CCOc2ccc(Oc3nc4nccnc4s3)cc2)CC1` [Example 26, 1-{2-[4-([1,3]Thiazolo[4,5-b]pyrazin-2-yloxy)phenoxy]ethyl}piperidine-4-carboxamide]: the IC50 in experiment [1] turned out to be 200 nM; in experiment [2], 260 nM.

In the case of `NC(=O)N1C[C@H]2CC[C@@H](C1)N2CCc1ccc(Oc2nc3cccnc3s2)cc1` [Example 71, meso-8-{2-[4-([1,3]Thiazolo[5,4-b]pyridin-2-yloxy)phenyl]ethyl}-3,8-diazabicyclo[3.2.1]octane-3-carboxamide], the IC50 was determined as 81 nM in experiment [1] and 280 nM in experiment [2].

For `Cc1ccc(SC2CCN(CCOc3ccc(Oc4nc5ncccc5s4)cc3)CC2)cc1` [Example 255, 2-[4-(2-{4-[(4-Methylphenyl)sulfanyl]piperidin-1-yl}ethoxy)phenoxy][1,3]thiazolo[4,5-b]pyridine], the IC50 was 71 nM in experiment [1] and 1300 nM in experiment [2].

In the case of `Cc1ccnc2nc(Oc3ccc(OCCN4CC5CN(C(=O)C6CCC6)CC5C4)cc3)sc12` (centres unmarked) [Example 146, 2-(4-{2-[5-(Cyclobutylcarbonyl)hexahydropyrrolo[3,4-c]pyrrol-2(1H)-yl]ethoxy}phenoxy)-7-methyl[1,3]thiazolo[4,5-b]pyridine], the IC50 in experiment [1] was 97 nM; in experiment [2] it was 450 nM.

As to `C[C@H]1CCCCN1Cc1ccc(Oc2nc3ncccc3s2)cc1` [Example 90, 2-(4-{[(2S)-2-Methylpiperidin-1-yl]methyl}phenoxy)[1,3]thiazolo[4,5-b]pyridine], the 50% inhibitory concentration (IC50) in experiment [1] was determined as 0.8 nM; in experiment [2], 23 nM.

With `NC(=O)N1CC2CN(CCc3ccc(Oc4nc5cccnc5s4)cc3)CC2C1` (centres unmarked) [Example 70, 5-{2-[4-([1,3]Thiazolo[5,4-b]pyridin-2-yloxy)phenyl]ethyl}hexahydropyrrolo[3,4-c]pyrrole-2(1H)-carboxamide], the IC50 turned out to be 72 nM in experiment [1] and 350 nM in experiment [2].
